From PMC8010095, “Discovery of novel antituberculosis agents among 3-phenyl-5-(1-phenyl-1H-[1,2,3]triazol-4-yl)-[1,2,4]oxadiazole derivatives targeting aminoacyl-tRNA synthetases” (Scientific Reports, 2021)
Converted amounts (≈) assume the structure as drawn. “Also recorded” adds a separate entry of the source. Where two headings read alike, the source gives them in different places.

Key:
[1] = biological target: T1, M. tuberculosis leucyl-tRNA synthetase (LeuRS) (Mycobacterium tuberculosis, UniProt P9WFV1); assay: biochemical; type: biochemical
T1 construct: made in house; host or cells: Escherichia coli

[2] = system: Mycobacterium abscessus (ATCC 19,977); assay: microbe, parasite or virus in culture; type: cell-based; details: > 80% reduction in growth, screened at 20, 2 and 0.2 mg/L, 7H9 complete medium; for MIC: Mycobacteroides abscessus, ATCC19, read-out: Growth inhibition cutoff, M. abscessus 19,977
[3] = system: Mycobacterium avium (ATCC 700,891 MAC 101); assay: microbe, parasite or virus in culture; type: cell-based; details: > 80% reduction in growth, screened at 20, 2 and 0.2 mg/L, 7H9 complete medium; for MIC: Mycobacterium avium, ATCC700, read-out: Growth inhibition cutoff, M. avium 700,891 (MAC 101)
M. tuberculosis H37Rv [4] = assay: microbe, parasite or virus in culture; type: cell-based; details: > 80% reduction in growth, screened at 20, 2 and 0.2 mg/L, 7H9 complete medium; for MIC: Mycobacterium tuberculosis, H37RV, read-out: Growth inhibition cutoff, H37Rv
[5] = system: HEK293 (human embryonic kidney 293); assay: MTT cytotoxicity assay, HEK293; type: cell-based; details: 3.125 µM to 50 µM
Method: (§1) We have tested compound 27 for cytotoxicity toward human cell lines HEK293 (human embryonic kidney 293) and HepG2 (human hepatocellular carcinoma cell line) using standard MTT assay.
(§2) Compound cytotoxicity was determined by standard MTT assay[37] using human embryonic kidney 293 (HEK293) and human hepatocellular carcinoma (HepG2) cell lines according to the method described previously. HEK 293 cell line was obtained from the Russian Cell Culture Collection (Institute of Cytology of the Russian Academy of Science, St.Petersburg, Russia) and HepG2 – from the Bank of Cell Lines from human and animal tissue (R. E. Kavetsky Institute of Experimental Pathology, Oncology and Radiobiology, NAS of Ukraine, Kyiv, Ukraine).

[6] = MTT cytotoxicity assay, HEK293; type: cell-based, human; details: human, hek293 cells, read-out: CC50, concentration to cause 50% cytotoxicity
Method: as §1, §2

M. tuberculosis H37Rv [7] = assay: microbe, parasite or virus in culture; type: cell-based, Mycobacterium tuberculosis; details: read-out: 2-week MIC
[8] = biological target: T2, M. tuberculosis methionyl-tRNA synthetase (MetRS) (Mycobacterium tuberculosis, UniProt P9WFU5); assay: biochemical; type: biochemical; details: for IC50: mean ± s.d. (n = 3)
T2 construct: made in house; host or cells: Escherichia coli

[9] = MTT cytotoxicity assay, HepG2; type: cell-based, human; details: human, hepg2 cells, read-out: CC50, concentration to cause 50% cytotoxicity
Method: as §1, §2

[10] = system: HepG2 (human hepatocellular carcinoma cell line); assay: MTT cytotoxicity assay, HepG2; type: cell-based; details: 3.125 µM to 50 µM
Method: as §1, §2

[11] = biological target: T1, M. tuberculosis leucyl-tRNA synthetase (LeuRS); design: method as in PMID 31691918; details: from the previous article ref 22; cited from earlier work
M. tuberculosis = system: M. tuberculosis; design: method as in PMID 31691918; details: earlier identified hit; cited from earlier work
[12] = biological target: T2, M. tuberculosis methionyl-tRNA synthetase (MetRS); design: method as in PMID 31691918; details: from the previous article ref 22; cited from earlier work
mycobacterial LeuRS = system: mycobacterial LeuRS; design: method as in PMID 28953378; details: cited from earlier work
[13] = system: human mitochondrial LeuRS; design: method as in PMID 28953378; details: cited from earlier work
human cytoplasmic LeuRS = system: human cytoplasmic LeuRS; design: method as in PMID 28953378; details: cited from earlier work
tuberculosis = system: tuberculosis; design: method as in PMID 28953378; details: cited from earlier work
[14] = system: Staphylococcus aureus MetRS; design: method as in PMID 19015366; details: S. aureus MetRS versus human mitochondrial MetRS; cited from earlier work
[15] = recombinant enzyme, mean ± spread (n in brackets), negative = activation

T1 sequence (P9WFV1 whole entry): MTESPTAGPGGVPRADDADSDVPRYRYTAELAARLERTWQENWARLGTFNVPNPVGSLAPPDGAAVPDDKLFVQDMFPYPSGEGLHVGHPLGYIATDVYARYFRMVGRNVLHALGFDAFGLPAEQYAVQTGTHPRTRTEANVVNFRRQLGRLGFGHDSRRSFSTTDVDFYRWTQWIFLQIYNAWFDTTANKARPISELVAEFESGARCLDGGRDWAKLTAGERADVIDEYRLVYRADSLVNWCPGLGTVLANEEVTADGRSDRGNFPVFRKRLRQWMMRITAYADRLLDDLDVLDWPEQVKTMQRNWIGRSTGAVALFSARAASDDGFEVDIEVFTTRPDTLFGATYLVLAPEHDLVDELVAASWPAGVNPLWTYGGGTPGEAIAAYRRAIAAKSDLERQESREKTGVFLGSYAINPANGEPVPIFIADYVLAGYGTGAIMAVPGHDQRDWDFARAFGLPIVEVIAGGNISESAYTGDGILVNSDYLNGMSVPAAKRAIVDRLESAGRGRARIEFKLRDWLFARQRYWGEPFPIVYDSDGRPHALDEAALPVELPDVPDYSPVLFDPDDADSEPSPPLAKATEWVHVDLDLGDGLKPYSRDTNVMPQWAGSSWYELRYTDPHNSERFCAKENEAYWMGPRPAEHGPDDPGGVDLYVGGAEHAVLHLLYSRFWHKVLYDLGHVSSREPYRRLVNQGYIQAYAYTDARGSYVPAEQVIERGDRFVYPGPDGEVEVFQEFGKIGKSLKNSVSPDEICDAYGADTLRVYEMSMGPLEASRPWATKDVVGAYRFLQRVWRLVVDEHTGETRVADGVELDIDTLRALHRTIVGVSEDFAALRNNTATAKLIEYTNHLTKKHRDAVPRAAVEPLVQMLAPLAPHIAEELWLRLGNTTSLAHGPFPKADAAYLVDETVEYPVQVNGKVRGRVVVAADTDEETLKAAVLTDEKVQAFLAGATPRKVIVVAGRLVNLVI
T2 sequence (P9WFU5 whole entry): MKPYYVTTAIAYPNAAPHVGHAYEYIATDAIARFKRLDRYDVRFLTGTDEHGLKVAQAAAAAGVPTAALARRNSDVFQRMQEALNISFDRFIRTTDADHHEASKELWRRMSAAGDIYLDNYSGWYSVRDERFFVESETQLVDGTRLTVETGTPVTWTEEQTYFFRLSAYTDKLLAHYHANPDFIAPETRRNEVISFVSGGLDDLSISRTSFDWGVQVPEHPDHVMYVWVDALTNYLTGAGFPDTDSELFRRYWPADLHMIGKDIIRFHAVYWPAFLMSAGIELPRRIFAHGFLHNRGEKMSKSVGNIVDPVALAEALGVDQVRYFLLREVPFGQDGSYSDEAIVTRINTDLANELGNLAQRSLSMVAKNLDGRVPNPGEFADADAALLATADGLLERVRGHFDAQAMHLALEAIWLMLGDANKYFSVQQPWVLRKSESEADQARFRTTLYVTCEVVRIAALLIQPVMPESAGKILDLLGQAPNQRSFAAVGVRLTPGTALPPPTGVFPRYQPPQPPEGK

| Compound | LeuRS inhibition activity, % [1, 15] | Growth inhibition cutoff, M. abscessus 19,977 [2] [mg/L] | Growth inhibition cutoff, M. avium 700,891 (MAC 101) [3] [mg/L] | Growth inhibition cutoff, H37Rv (M. tuberculosis H37Rv [4]) [mg/L] | MetRS inhibition activity, % [8, 15] | also measured |
| --- | --- | --- | --- | --- | --- | --- |
| COc1ccc(Cl)cc1-n1nnc(-c2nc(-c3ccc(F)cc3)no2)c1N [Compound 27] |  |  |  |  |  | LeuRS inhibition activity, % [1]: 14 ± 12 (2) %; MIC [2]: > 20 µg/mL; MIC [3]: > 20 µg/mL; MIC (M. tuberculosis H37Rv [4]): > 20 µg/mL; cytotoxicity / effect on cell viability [5]: did not affect cell viability; also recorded: not cytotoxic; CC50 [6]: > 50 µM; MIC (M. tuberculosis H37Rv [7]; Mycobacterium tuberculosis, H37RV, 336 h): 25 µM (≈ 9.67 µg/mL); MIC (M. tuberculosis H37Rv [7]): > 50 µM; MetRS inhibition activity, % [8]: 57 ± 11 (3) %; IC50 [8]: 148 ± 33.2 µM; CC50 [9]: > 50 µM; cytotoxicity / effect on cell viability [10]: did not affect cell viability; also recorded: not cytotoxic |
| COc1ccc(-n2nnc(-c3nc(-c4ccc(F)cc4)no3)c2N)cc1Cl [Compound 17, 3-(3-chloro-4-methoxy-phenyl)-5-[3-(4-fluoro-phenyl)-[1,2,4]oxadiazol-5-yl]-3H-[1,2,3]triazol-4-ylamine] | 51 ± 28 (2) % | > 20 | > 20 | > 20 | 77 ± 3 (2) % | IC50 [11]: 13 µM; antibacterial activity toward M. tuberculosis (M. tuberculosis): does not have antibacterial activity; IC50 [12]: 13.8 µM |
| NC[C@H]1OB(O)c2c(OCCO)ccc(Cl)c21 [GSK656, (S)-3-(Aminomethyl)-4-chloro-7-(2-hydroxyethoxy) benzo [c][1, 2] oxaborol-1 (3 H)-ol] |  |  |  |  |  | IC50 (mycobacterial LeuRS): 0.2 µM; IC50 [13]: > 300 µM; IC50 (human cytoplasmic LeuRS): > 300 µM; efficacy in an animal model of tuberculosis (tuberculosis): effective |
| Cc1cccc(-n2nnc(-c3nc(-c4ccc(F)cc4)no3)c2N)c1 [Compound 18] | 13 ± 11 (2) % | > 20 | > 20 | > 20 | 26 ± 20 (2) % |  |
| Nc1c(-c2nc(-c3ccc(F)cc3)no2)nnn1-c1ccccc1 [Compound 9] | 1 ± 8 (2) % | > 20 | > 20 | > 20 | 30 ± 2 (2) % |  |
| CCOc1ccc(-c2noc(-c3nnn(-c4ccccc4Cl)c3N)n2)cc1 [Compound 40] | 36 ± 16 (3) % | > 20 | > 20 | > 20 | 22 ± 14 (2) % |  |
| Nc1c(-c2nc(-c3ccc(F)cc3)no2)nnn1-c1ccc(F)cc1 [Compound 12] | 3 ± 7 (2) % | > 20 | > 20 | > 20 | 52 ± 6 (2) % |  |
| C=C(F)c1sc(CNCCCNc2cc(O)c3ccccc3n2)c(C)c1Br [REP8839] |  |  |  |  |  | affinity for the bacterial enzyme relative to human mitochondrial MetRS [14]: 1000 fold |
| Nc1c(-c2nc(-c3ccc(Cl)cc3)no2)nnn1-c1ccc(Br)cc1F [Compound 31] | 15 ± 11 (2) % | > 20 | > 20 | > 20 | 70 ± 19 (2) % |  |
| Nc1c(-c2nc(-c3ccc(F)cc3)no2)nnn1-c1ccccc1F [Compound 23] | 5 ± 7 (2) % | > 20 | > 20 | > 20 | 7 ± 13 (2) % |  |
| Nc1c(-c2nc(-c3ccccc3)no2)nnn1-c1ccc(C(F)(F)F)c(Cl)c1 [Compound 2] |  |  |  |  |  | LeuRS inhibition activity, % [1]: 32 ± 19 (3) %; IC50 ([1]; mean ± s.d. (n = 3)): 76.5 ± 66 µM; MIC [2]: > 20 µg/mL; MIC [3]: > 20 µg/mL; MIC (M. tuberculosis H37Rv [4]): > 20 µg/mL; MetRS inhibition activity, % [8]: 71 ± 29 (2) %; IC50 [8]: 115 ± 3 µM |
